One assay deals with Pythium aristosporum. The assay is described as follows: Inhibition test of mycelial growth against Pythium aristosporum. It is filed as cell-based. The following applies: 48 h, PSA, 2 days, 20° C., read-out: Inhibition Rate of Mycelial Growth against Pythium aristosporum. The protocol:
(§1) Pythium aristosporum was precultured. And the obtained hyphae (4 mm in diameter) was transplanted on potato sucrose agar medium (PSA) including an agent at a predetermined concentration, and then cultured for two days at room temperature of 20° C., followed by measuring a diameter of the mycelial colony to obtain an inhibition rate of mycelial growth. In addition, a theoretical value of the inhibition rate was calculated using Colby's formula and listed in parentheses of Table 1.

The test system of another assay is Pythium aphanidermatum. The experiment in a line: Inhibition test of mycelial growth against Pythium aphanidermatum. It is filed as cell-based. The following applies: read-out: Inhibition Rate of Mycelial Growth against Pythium aphanidermatum. The protocol: [Worded in the source for another organism; this organism is reported under the same test.] as §1, with “growth. The inhibition rate of mycelial growth was obtained by measuring a diameter of mycelial colony in the same manner as Test Example 1.” for “growth.”, “2.” for “1.”

Setting [1] is: Cyazofamid 0.1 ppm alone (Folpet 0 ppm).
The mark [2] stands for this setting: Cyazofamid 1 ppm alone (Folpet 0 ppm).
The mark [3] stands for this setting: Cyazofamid 10 ppm alone (Folpet 0 ppm).
Where [4] appears, read: Cyazofamid 100 ppm alone (Folpet 0 ppm).
[5] abbreviates: Folpet 0.1 ppm alone (Cyazofamid 0 ppm).
Where [6] appears, read: Folpet 1 ppm alone (Cyazofamid 0 ppm).
The mark [7] stands for this setting: Folpet 10 ppm alone (Cyazofamid 0 ppm).
[8] abbreviates: Folpet 100 ppm alone (Cyazofamid 0 ppm).

Like-named read-outs stand apart in the source and are kept apart here.

For orientation: inhibition means how much of the control response was suppressed. Turning to `Cc1ccc(-c2c(Cl)nc(C#N)n2S(=O)(=O)N(C)C)cc1` [Cyazofamid, 4-chloro-2-cyano-1-dimethylsulfamoyl-5-(4-methylphenyl)imidazole], the inhibition at 0.1 ppm in the assay on Pythium aristosporum (setting [1]) was 17%; in the assay on Pythium aphanidermatum (setting [1]) it was 54%. The inhibition at 1 ppm worked out at 38% in the assay on Pythium aristosporum (setting [2]) and 52% in the assay with Pythium aphanidermatum (setting [2]). In addition, the inhibition at 10 ppm in the assay on Pythium aristosporum (setting [3]) stood at 38%; in the assay with Pythium aphanidermatum (setting [3]) it was 60%. Further, the inhibition at 100 ppm in the assay with Pythium aristosporum (setting [4]) worked out at 41%; in the assay on Pythium aphanidermatum (setting [4]), 80%.

Regarding `O=C1c2ccccc2C(=O)N1SC(Cl)(Cl)Cl` [Folpet, N-(trichloromethanesulphenyl)phthalimide], the results for the inhibition at 0.1 ppm in the assay on Pythium aristosporum (setting [5]) and in the assay on Pythium aphanidermatum (setting [5]) were 3% and 2%, respectively. The figures for the inhibition at 1 ppm in the assay with Pythium aristosporum (setting [6]) and with Pythium aphanidermatum (setting [6]) were 3% and 0%, respectively. The inhibition at 10 ppm in the assay on Pythium aristosporum (setting [7]) is 45%; with Pythium aphanidermatum (setting [7]) it was 62%. Further, the inhibition at 100 ppm in the assay with Pythium aristosporum (setting [8]) worked out at 90%; in the assay with Pythium aphanidermatum (setting [8]), 80%.

For the origin of these results see patent US8580288B2, “Agricultural or horticultural fungicide composition and its use for controlling plant pathogens” (Ishihara Sangyo Kaisha, Ltd, priority 2009, dated 2013).
